Our source for the IC50 values is patent publication US20130137741A1 (ALCON RESEARCH, LTD., priority 2009, published 2013).

The experiment relates to FGFR. The experiment is described as follows: Kinase inhibition, cell-free enzymatic assay. Format: biochemical. The note with it: 1 mM ATP.

Broadly, the IC50 is the concentration at which inhibition is half-maximal. In turn, `Cc1ccc(F)c(NC(=O)Nc2ccc(-c3cccc4[nH]nc(N)c34)cc2)c1` [RTK Inhibitor, N-[4-(3-amino-1H-indazol-4-yl)phenyl]-N′-(2-fluoro-5-methylphenyl) urea] showed an IC50 above 12.5 µM.
